What was measured:
Format in all cases: in vivo
[1] = tested on: cotton aphids (Aphis gossypii); assay: Test method 1: diluted solution sprayed on cucumber seedlings infested with cotton aphids; conditions: 500 ppm, spray 10 mL/seedling on cucumber, 5 days after spraying, 25° C.
Procedure: (§1) Next, Test Examples are used to show effects of the Present compounds on harmful arthropods. In the following Test Examples, the tests were carried out at 25° C.
(§2) Each test compound is formulated according to the method described in the Formulation Example 5 to obtain each formulation, and water containing Sindaine (registered trademark) (0.03% by volume) is added thereto to prepare a diluted solution containing a prescribed concentration of each test compound.
Cucumber (Cucumis sativus) seedlings (on the developmental stage of the second true leaf) are planted in a container and approximately 30 cotton aphids (Aphis gossypii) (all stages of life) are released onto the cucumber seedlings. After 1 day, each of said diluted solutions is sprayed into the seedlings in a ratio of 10 mL/seedling. After additional 5 days, the number of the surviving insects is examined and the controlling value is calculated by the following equation. Controlling value (%)={1−(Cb×Tai)/(Cai×Tb)}×100 wherein the symbols in the equation represent the following meanings.
(§3) Cb: Number of the test insects in non-treated area;
Cai: Number of the surviving insects at the time of the investigation in non-treated area; Tb: Number of the test insects in treated area;
(§4) Tai: Number of the surviving insects at the time of the investigation in treated area; […]

[2] = tested on: cotton aphids (Aphis gossypii); assay: Test method 2: diluted solution irrigated into plant foot of cucumber seedlings, cotton aphids released after 7 days; conditions: 1000 ppm, irrigation into plant foot 5 mL/seedling, counted after additional 6 days, 25° C.
Procedure: as §1
Each test compound is formulated according to the method described in the Formulation Example 5 to obtain each formulation, and water is added thereto to prepare a diluted solution containing a prescribed concentration of each test compound.
Cucumber seedlings (on the developmental stage of the second true leaf) are planted in a container, and each of said diluted solutions is irrigated into the plant foot in a ratio of 5 mL/seedlings. After 7 days, approximately 30 cotton aphids (Aphis gossypii) (all stages of life) are released onto the surfaces of leaves of the cucumber seedlings. After additional 6 days, the number of the surviving insects is examined and the controlling value is calculated by the following equation. Controlling value (%)={1−(Cb×Tai)/(Cai×Tb)}×100 wherein the symbols in the equation represent the following meanings.
as §3
Cai: Number of the surviving insects at the time of the investigation in non-treated area;
Tb: Number of the test insects in treated area;
as §4

[3] = tested on: western corn rootworm (Diabrotica virgifera virgifera); assay: Test method 5: corn seedlings immersed in diluted solution, 2nd instar larvae of western corn rootworm; conditions: 500 ppm, corn seedlings immersed 30 seconds, after 5 days, 25° C.
Procedure: as §1
Each test compound is dissolved into a mixed solution (50 μL) of polyoxyethylene sorbitan mono-cocoate and acetone (at a volume ratio of polyoxyethylene sorbitan mono-cocoate:acetone=5:95) per 1 mg of the test compound. Water containing Sindaine (registered trademark) (0.03% by volume) is added thereto to prepare a diluted solution containing a prescribed concentration of each test compound.
Young seedlings of corns (Zea mays) are immersed into each of said diluted solutions for 30 seconds. Thereafter, two of said seedlings are placed into a petri dish (diameter: 90 mm), and 10 the 2nd instar larvae of western corn rootworm (Diabrotica virgifera virgifera) are released into the dish. After 5 days, the number of the dead insects is counted, and the mortality of insects is calculated by the following equation. Mortality (%)=(Number of dead insects/10)×100

[4] = tested on: diamondback moth (Plutella xylostella); assay: Test method 4: sprayed cabbage seedlings, 3rd instar larvae of diamondback moth; conditions: 500 ppm, spray 20 mL/seedling on cabbage, after 5 days, 25° C.
Procedure: as §1, §2
(§5) Cabbage seedlings (on the developmental stage of the second to third true leaf) are planted in a container, and each of said diluted solutions is sprayed into the seedlings in a ratio of 20 mL/seedlings. Thereafter, the stem and leaf of the seedlings are cut out, and placed into a container lined with a filter paper. Five (5) the 3rd instar larvae of diamondback moth (Plutella xylostella) are released into the container. After 5 days, the number of the surviving insects is counted, and the mortality of insects is calculated by the following equation. Mortality (%)=(1−Number of surviving insects/5)×100

[5] = tested on: cotton worm (Spodoptera litura); assay: Test method 3: sprayed cabbage seedlings, 3rd instar larvae of cotton worm; conditions: 500 ppm, spray 20 mL/seedling on cabbage, after 5 days, 25° C.
Procedure: as §1, §2
as §5, with “Cabbage (Brassicae oleracea)” for “Cabbage”, “cotton worm (Spodoptera litura)” for “diamondback moth (Plutella xylostella)”

CCS(=O)(=O)c1c(-n2ccn3nc(C(F)(F)F)cc3c2=O)nc2ccc(C(F)(F)F)cn12 [compound 2]
controlling value [1]: ≥ 90% | controlling value [2]: ≥ 90% | mortality [3]: ≥ 80% | mortality [4]: ≥ 80% | mortality [5]: ≥ 80%

Reference: patent publication US12144350B2, “Heterocyclic compound and harmful arthropod control composition containing same” (SUMITOMO CHEMICAL COMPANY, LIMITED, priority 2019, dated 2024)
